Test results from patent publication US20240252576A1, “Application Method of Radix Paeoniae Alba and Dendrobium Officinale for Preparing Drug for Treatment of Hypertension” (Hangzhou Danhe Pharmaceutical Co., Ltd., priority 2018, published 2024).

Experiments:
normal Wistar rat = test: Experiment 3: blood pressure effect of the sample of the Embodiment 1 on normal rats; format: in vivo; settings: 5 mg medicine/kg body weight; for diastolic pressure / systolic pressure: normal Wistar rats
Method: Rat: 12 Weeks Old Normal Wistar Rat.
Rat blood pressure measurement: BP-98 A type non-invasive tail arterial blood pressure measuring instrument, Softron Co., Ltd. (Japan).
Grouping treatment: All rats were adaptively fed for a week, measured with blood pressure and weight, and set into groups. […] Ten rats for each group, treating for 2 weeks.
Blood pressure measurement: The Rats were pre-heated to 38° C. for 5-10 mins to avoid less blood flow of the tail that affects the pressure measurement. Three measurements are continuously carried out as the rat was in an awake and quiet state. The average value of the 3 measurements was considered as the blood pressure of the rat. The blood pressure is measured prior to the treatment and 2 hours after each administration every week.

[1] = test system: adult sitting and lying blood pressure; test: Clinical test data on the instructions of Irbesartan (Aprovel); format: in vivo, human; settings: 150-300 mg daily for adults
[2] = test system: adult sitting and lying blood pressure; settings: adult daily dosage of 150-300 mg, cited from earlier work
[3] = test system: hereditary hypertension rats (SHR); test: Experiment 1: hypotensive effect of alcohol-water dual-extraction of Radix Paeoniae Alba on SHR, tail arterial blood pressure; format: in vivo, rat; settings: 15 mg/Kg body weight
Text: Rats: old age (over 48 weeks old) hereditary hypertension rats (SHR) and the normal controls were Wistar rats. Rat blood pressure measurement: BP-98 A type non-invasive tail arterial blood pressure measuring instrument, Softron Co., Ltd. (Japan). Grouping treatment: All rats were adaptively fed for a week, measured with blood pressure and weight, and set into groups. SHR rats were divided into alcohol-water dual-extraction of Radix Paeoniae Alba large dosage group for the dosage of 3.2 g/kg body weight, alcohol-water dual-extraction of Radix Paeoniae Alba medium dosage group for the dosage of 0.8 g/kg body weight, alcohol-water dual-extraction of Radix Paeoniae Alba small dosage group for the dosage of 0.2 g/kg body weight, alcohol extraction of Radix Paeoniae Alba group for the dosage of 0.8 g/kg body weight, water extraction of Radix Paeoniae Alba group for the dosage of 0.8 g/kg body weight, Radix Paeoniae Alba powder group for the dosage of 0.8 g/kg body weight; utilizing gastric infusion; hypertension model control group receives equal amount of physiological saline; Irbesartan control group receives 15 mg/Kg body weight of Irbesartan; and normal control group receives equal amount of physiological saline. Each group has 8 rats. The treatment last for 3 weeks (multiple of 3-12 weeks of treatments are performed, the results can be repeated, and typical experimental results are reported below). Blood pressure measurement: The Rats were pre-heated to 38° C. for 5-10 mins to avoid less blood flow of the tail that affects the pressure measurement. Three measurements are continuously carried out as the rat was in an awake and quiet state. The average value of the 3 measurements was considered as the blood pressure of the rat.

[4] = test system: hereditary hypertension rats (SHR); test: Experiment 2: hypotensive effect of the sample of the Embodiment 1 on SHR, tail arterial blood pressure; format: in vivo, rat; settings: 15 mg/Kg body weight
Text: Rats: old age (over 48 weeks old) hereditary hypertension rats (SHR) and the normal controls were Wistar rats. Rat blood pressure measurement: BP-98 A type non-invasive tail arterial blood pressure measuring instrument, Softron Co., Ltd. (Japan). 1. Grouping treatment: All rats were adaptively fed for a week, measured with blood pressure and weight, and set into groups. SHR rats were grouped: sample of the Embodiment 1 (alcohol-water dual-extraction of Radix Paeoniae Alba with Dendrobium Officinale powder added)-large dosage group for the dosage of 3.5 g/kg body weight, sample of the Embodiment 1-medium dosage group for the dosage of 1.4 g/kg body weight, sample of the Embodiment 1-small dosage group for the dosage of 0.35 g/kg body weight, Dendrobium Officinale powder for the dosage of raw medicine of 0.8 g/kg body weight (which is the same as the raw medicine amount of the Dendrobium Officinale powder (0.8 g/kg body weight) contained in 1.4 g/Kg body weight of the sample of the Embodiment 1), alcohol-water dual-extraction of Radix Paeoniae Alba for the dosage of raw medicine of 0.6 g/kg body weight (which is the same as the raw medicine amount of the Radix Paeoniae Alba (0.6 g/kg body weight) contained in 1.4 g/Kg body weight of the sample of the Embodiment 1); utilizing gastric infusion; hypertension model control group receives equal amount of physiological saline; Irbesartan control group receives 15 mg/Kg body weight of Irbesartan; and normal control group receives equal amount of physiological saline. Each group has 8 rats. The treatment last for 3 weeks (multiple of 3-12 weeks of treatments are performed, the results can be repeated, and typical experimental results are reported below). 2. Blood pressure measurement: The Rats were pre-heated to 38° C. for 5-10 mins to avoid less blood flow of the tail that affects the pressure measurement. Three measurements are continuously carried out as the rat was in an awake and quiet state. The average value of the 3 measurements was considered as the blood pressure of the rat.

[5] = Treated for 1 Week, 2 hours after administration
[6] = Treated for 2 Weeks, 2 hours after administration
[7] = sitting and lying blood pressure
[8] = Treated for 3 Weeks, 2 hours after administration
[9] = Treat 3 weeks, 24 hrs, 15 mg/kg

With CCOC(=O)C1=C(COCCN)NC(C)=C(C(=O)OC)C1c1ccccc1Cl (stereo not shown) [Norvasc, amlodipine besylate] the “hypotensive effect to the normal blood pressure rats” value (normal Wistar rat) was “triggered relatively great hypotensive effect”, the diastolic pressure (normal Wistar rat; Before Treatment) was 99.2 ± 4.87 mmHg and the systolic pressure (normal Wistar rat; Before Treatment) was 137.6 ± 5.46 mmHg. It also gave a diastolic pressure (normal Wistar rat; [5]) of 71.8 ± 3.76 mmHg, a systolic pressure (normal Wistar rat; [5]) of 95.7 ± 4.69 mmHg and a diastolic pressure (normal Wistar rat; [6]) of 74.5±2.76 mmHg. The systolic pressure (normal Wistar rat; [6]) was 99.2±5.75 mmHg.

In the case of CCCCC1=NC2(CCCC2)C(=O)N1Cc1ccc(-c2ccccc2-c2nnn[nH]2)cc1 [Irbesartan], the “hypotensive extent in the hypotensive peak, diastolic pressure” value ([1]; calculated from intermediate values 6.5 mmHg/0.7) is given as 9.29 mmHg, the “hypotensive extent in the hypotensive peak, systolic pressure” value ([1]; calculated from intermediate values 10.5 mmHg/0.7) is given as 15.00 mmHg and the “ratio of the hypotensive valley and peak” value [2] is given as 60-80%. The “average hypotensive valley value, diastolic” value [2, 7] was 5-8 mmHg, the “average hypotensive valley value, systolic” value [2, 7] was 8-13 mmHg and the diastolic pressure ([3]; Before Treatment) was 166.7 ± 4.21 ^ mmHg. The systolic pressure ([3]; Before Treatment) was 215.2 ± 4.45 ^ mmHg, the diastolic pressure ([3]; First Treated) was 155.2 ± 3.25 mmHg and the systolic pressure ([3]; First Treated) was 181.6 ± 3.12 mmHg. The diastolic pressure [3, 5] was 150.8 ± 2.89 mmHg, the systolic pressure [3, 5] was 180.4 ± 3.56 mmHg and the diastolic pressure [3, 6] was 151.8 ± 2.71 mmHg. For the same compound, the systolic pressure [3, 6] was 178.6 ± 2.04 mmHg, the diastolic pressure [3, 8] was 152.9 ± 2.89 mmHg and the systolic pressure [3, 8] was 177.8 ± 2.12 mmHg. The diastolic pressure ([4]; Before Treatment) was 166.7 ± 4.21 ^ mmHg, the systolic pressure ([4]; Before Treatment) was 215.3 ± 5.87 ^ mmHg and the diastolic pressure ([4]; Treat 1 time, 2 hrs) was 150.1 ± 3.25 mmHg. The systolic pressure ([4]; Treat 1 time, 2 hrs) was 182.4 ± 3.89 mmHg, the diastolic pressure ([4]; Treat 1 time, 24 hrs) was 156.6 ± 3.57^Δ mmHg and the systolic pressure ([4]; Treat 1 time, 24 hrs) was 198.7 ± 3.61 mmHg. For the same compound, the diastolic pressure ([4]; Treat 1 week, 2 hrs) was 149.7 ± 2.36 mmHg, the systolic pressure ([4]; Treat 1 week, 2 hrs) was 181.2 ± 3.34 mmHg and the diastolic pressure ([4]; Treat 1 week, 24 hrs) was 155.3 ± 2.36 mmHg. It also gave a systolic pressure ([4]; Treat 1 week, 24 hrs) of 197.8 ± 2.87 mmHg, a diastolic pressure ([4]; Treat 2 weeks, 2 hrs) of 147.4 ± 3.46 mmHg and a systolic pressure ([4]; Treat 2 weeks, 2 hrs) of 177.5 ± 2.23 mmHg. The diastolic pressure ([4]; Treat 2 weeks, 24 hrs) was 156.2 ± 3.25 mmHg, the systolic pressure ([4]; Treat 2 weeks, 24 hrs) was 199.9 ± 2.36 mmHg and the diastolic pressure ([4]; Treat 3 weeks, 2 hrs, 15 mg/kg) was 149.5±3.24 mmHg. For the same compound, the systolic pressure ([4]; Treat 3 weeks, 2 hrs, 15 mg/kg) was 178.9±3.87 mmHg, the diastolic pressure [4, 9] was 154.1±2.08 mmHg and the systolic pressure [4, 9] was 198.7±2.24 mmHg.
